Legend:
[1] = Selectivity index, ratio of CC50 for mouse MC3T3-G2/PA6 cells to IC50 for inhibition of lipid droplet accumulation in mouse MC3T3-G2/PA6 cells; assay type: functional
[2] = Cytotoxicity against mouse MC3T3-G2/PA6 cells assessed as cell viability by MTT assay; assay type: cell-based
[3] = Antiadipogenic activity in mouse MC3T3-G2/PA6 cells assessed as inhibition of lipid droplet accumulation after 6 days; assay type: functional, cell-based; settings: MC3T3-G2/PA6, 144 h

Compound | Ratio CC50/IC50 [1] | CC50 [2] [µM] | IC50 [3] [µM]
CCO[C@@H]1[C@@H]2OC[C@]3(C)C=CC(=O)[C@](C)([C@H]4CC[C@]5(C)C(=CC[C@H]5c5ccoc5)[C@@]41C)[C@@H]23 | 2.7 | 20.6 | 7.7
COCO[C@@H]1[C@@H]2OC[C@]3(C)C=CC(=O)[C@](C)([C@H]4CC[C@]5(C)C(=CC[C@H]5c5ccoc5)[C@@]41C)[C@@H]23 | 2.3 | 19.7 | 8.5
CC(=O)O[C@@H]1[C@@H]2OC[C@]3(C)C=CC(=O)[C@](C)([C@H]4CC[C@]5(C)C(=CC[C@H]5c5ccoc5)[C@@]41C)[C@@H]23 | 3 | 26.2 | 8.8
C[C@]12C3=CC[C@@H](c4ccoc4)[C@]3(C)CC[C@@H]1[C@@]1(C)C(=O)C=C[C@@]3(C)CO[C@@H]([C@H]2OC(=O)C(F)(F)F)[C@H]13 | 1.9 | 13.7 | 7.3
C[C@]12C3=CC[C@@H](c4ccoc4)[C@]3(C)CC[C@@H]1[C@@]1(C)C(=O)C=C[C@@]3(C)CO[C@@H]([C@H]2OC(=O)c2ccccc2)[C@H]13 |  | > 50 | > 50
C[C@]12C3=CC[C@@H](c4ccoc4)[C@]3(C)CC[C@@H]1[C@@]1(C)C(=O)C=C[C@@]3(C)CO[C@@H]([C@H]2OC(=O)c2ccncc2)[C@H]13 | 0.9 | 17.2 | 18.7
C[C@]12CCC(=O)[C@]3(C)[C@H]4CC[C@]5(C)C(=CCC5C5CCOC5)[C@]4(C)[C@H](O)[C@H](OC1)[C@@H]23 (stereo partly specified) |  | > 50 | > 50
C[C@@]12C(=O)C=C[C@@]3(C)COC(=C[C@@]4(C)C5=CC[C@@H](c6ccoc6)[C@]5(C)CC[C@H]14)[C@H]23 | >1.7 | > 50 | 29.5
C[C@@]12CCC(O)[C@@]3(C)[C@H]1[C@@H](OC2)[C@@H](O)[C@@]1(C)C2=CC[C@@H](c4ccoc4)[C@]2(C)CC[C@@H]13 (stereo partly specified) | >2.4 | > 50 | 20.8
CC(=O)O[C@H]1[C@@H](O)[C@@]2(C)C3=CC[C@@H](c4ccoc4)[C@]3(C)CC[C@@H]2[C@@]2(C)C(=O)[C@H]3O[C@H]3[C@]3(CO3)[C@H]12 [CERAMICINE E] | 1.1 | 48.4 | 44.1
C[C@@]1(C=O)C=CC(=O)[C@]2(C)[C@H]3CC[C@]4(C)C(=CC[C@H]4c4ccoc4)[C@]3(C)[C@H](O)[C@H](O)[C@@H]12 [CERAMICINE F] | 1.1 | 25 | 22.4
COC(=O)[C@]1(C)C=CC(=O)[C@]2(C)[C@H]3CC[C@]4(C)C(=CC[C@H]4c4ccoc4)[C@]3(C)[C@H](O)[C@H](O)[C@H]21 [CERAMICINE G] | 1.9 | 72.9 | 38.4
C/C=C(\C)C(=O)O[C@H]1C[C@H]2[C@](C)(C3=CC[C@@H](c4ccoc4)[C@@]31C)[C@H](O)[C@@H]1OC[C@]3(C)C=CC(=O)[C@@]2(C)[C@@H]13 [CERAMICINE H] |  | > 50 | > 50
CC(=O)O[C@H]1C[C@H]2[C@](C)(C3=CC[C@@H](c4ccoc4)[C@@]31C)[C@H](O)[C@@H]1OC[C@]3(C)C=CC(=O)[C@@]2(C)[C@@H]13 [CERAMICINE I] | >1.2 | > 50 | 41
C[C@@]12CC[C@@H]3[C@@]4(C)C(=O)C=C[C@@]5(C)CO[C@@H]([C@@H](O)[C@@]3(C)[C@@H]1C(=O)C[C@H]2c1ccoc1)[C@H]45 [CERAMICINE J] |  | > 50 | > 50
CC(=O)O[C@H]1C=CC(=O)[C@@]2(C)[C@H]1[C@@H](O)[C@@H](O)[C@@]1(C)C3=CC[C@@H](c4ccoc4)[C@]3(C)CC[C@H]21 [CERAMICINE K] |  | > 50 | > 50
C[C@]12C3=CC[C@@H](c4ccoc4)[C@]3(C)CC[C@@H]1[C@@]1(C)C(=O)C=C[C@@](C)(O)[C@@H]1[C@@H](O)[C@H]2O [CERAMICINE L] |  | > 50 | > 50
CC(=O)O[C@@H]1[C@H]2[C@@H](O)C=CC(=O)[C@]2(C)[C@H]2CC[C@]3(C)C(=CC[C@H]3c3ccoc3)[C@]2(C)[C@@H]1O [CERAMICINES A] | 5 | 30.7 | 6.2
C[C@]12C3=CC[C@@H](c4ccoc4)[C@]3(C)CC[C@@H]1[C@@]1(C)C(=O)C=C[C@@]3(C)CO[C@@H]([C@H]2O)[C@H]13 [CERAMICINES B] | 8.8 | 15.9 | 1.8
C=C(C)C(=O)O[C@H]1C[C@H]2[C@](C)(C3=CC[C@@H](c4ccoc4)[C@@]31C)[C@H](O)[C@@H]1OC[C@]3(C)C=CC(=O)[C@@]2(C)[C@@H]13 [CERAMICINES C] | 1.2 | 21.9 | 19.1
C[C@]12C3=CC[C@@H](C4=CCOC4=O)[C@]3(C)CC[C@@H]1[C@@]1(C)C(=O)C=C[C@@]3(C)CO[C@@H]([C@H]2O)[C@H]13 [CERAMICINES D] |  | > 50 | > 50

Source: ChEMBL document CHEMBL2331359, “Ceramicines from Chisocheton ceramicus as lipid-droplets accumulation inhibitors” (Bioorg Med Chem Lett, 2013)
